Data from patent US12492173B2, “Herbicidal substituted N-tetrazolyl aryl carboxamides” (Bayer Aktiengesellschaft, priority 2019, dated 2025).

Legend:
Format in all cases: in vivo
Cyperus esculentus = test: Pre-emergence herbicidal action, CYPES; parameters: key: % activity: 100 = plants have died, 0 = like control plants; settings: comparative experiment, 20 g of a.i./ha
In short: (§1)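 Greenhouse pre-emergence test: formulated compound (WP or EC) applied in water to the soil covering sown seeds, 600–800 l/ha, 0.2% wetting agent. Scored visually in percent at 3 weeks versus untreated plants.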

Lolium rigidum = test: Pre-emergence herbicidal action, LOLRI; settings: dosage 320 g/ha, scored visually after 3 weeks vs untreated controls (100% = plants have died)
From the text: 1. Pre-Emergence Herbicidal Action Against Harmful Plants Seeds of monocotyledonous and dicotyledonous weed plants and crop plants are laid out in sandy loam soil in wood-fiber pots and covered with soil. The compounds of the invention, formulated in the form of wettable powders (WP) or as emulsion concentrates (EC), are then applied to the surface of the covering soil in the form of an aqueous suspension or emulsion at a water application rate equating to 600 to 800 l/ha, with addition of 0.2% wetting agent. After the treatment, the pots are placed in a greenhouse and kept under good growth conditions for the trial plants. The damage to the test plants is scored visually after a test period of 3 weeks by comparison with untreated controls (herbicidal activity in percent (%): 100% activity=the plants have died, 0% activity=like control plants). […] The tables below illustrate, in an exemplary manner, the […] herbicidal action of the compounds according to the invention, the herbicidal activity being stated in percent. [table] In the experiments that follow, herbicidal action of numerous inventive compounds and the known compounds that are structurally closest from D1 (WO 2012/028579 A1) and D2 (WO 2018/202535 A1) were compared under the above-specified conditions by the pre-emergence and post-emergence method. The example numbers given in the tables relate to the compounds disclosed in the respective documents. In addition to the compounds disclosed in D1 and D2, the following compounds V-1 to V-14 that are encompassed by D1 or D2 but are not compounds specified therein were used in the comparative experiments: • V-1: 2-(methylsulfanyl)-3-(methylsulfinyl)-N-(1-methyl-1H-tetrazol-5-yl)-4-(trifluoromethyl)benzamide • V-2: 2-(methylsulfanyl)-3-(methylsulfonyl)-N-(1-methyl-1H-tetrazol-5-yl)-4-(trifluoromethyl)benzamide • V-3: 2,3-bis(ethylsulfanyl)-N-(1-methyl-1H-tetrazol-5-yl)-4-(trifluoromethyl)benzamide • V-4: 2-chloro-3-(ethylsulfanyl)-N-(1-methyl-1H-tetrazol-5-yl)-4-(trifluoromethyl)benzamide • V-5: 2-chloro-4-iodo-3-(methylsulfanyl)-N-(1-methyl-1H-tetrazol-5-yl)benzamide • V-6: 2-chloro-4-iodo-3-(methylsulfinyl)-N-(1-methyl-1H-tetrazol-5-yl)benzamide • V-7: 2-chloro-4-iodo-3-(methylsulfonyl)-N-(1-methyl-1H-tetrazol-5-yl)benzamide • V-8: 2-bromo-3-(methylsulfanyl)-N-(1-methyl-1H-tetrazol-5-yl)-4-(trifluoromethyl)benzamide • V-9: 2-bromo-3-(methylsulfinyl)-N-(1-methyl-1H-tetrazol-5-yl)-4-(trifluoromethyl)benzamide • V-10: 2-bromo-3-(methylsulfonyl)-N-(1-methyl-1H-tetrazol-5-yl)-4-(trifluoromethyl)benzamide • V-11: 2-bromo-3-(ethylsulfanyl)-N-(1-methyl-1H-tetrazol-5-yl)-4-(trifluoromethyl)benzamide • V-12: 2-bromo-3-(ethylsulfinyl)-N-(1-methyl-1H-tetrazol-5-yl)-4-(trifluoromethyl)benzamide • V-13: 2-bromo-3-(ethylsulfonyl)-N-(1-methyl-1-1H-tetrazol-5-yl)-4-(trifluoromethyl)benzamide • V-14: 2-cyclopropyl-3-(ethylsulfanyl)-N-(1-methyl-1H-tetrazol-5-yl)-4-(trifluoromethyl)benzamide Herbicidal Pre-Emergence Action: […]

Alopecurus myosuroides = test: Pre-emergence herbicidal action, ALOMY; parameters: key: % activity: 100 = plants have died, 0 = like control plants; settings: comparative experiment, 20 g of a.i./ha
In short: as §1

Hordeum murinum [1] = test: Post-emergence herbicidal action, HORMU; parameters: key: % herbicidal action: 100 = plants died, 0 = like control; settings: Dosage 80 g/ha
Method: [table] 2. Post-Emergence Herbicidal Action Against Harmful Plants Seeds of monocotyledonous and dicotyledonous weed and crop plants are laid out in sandy loam soil in wood-fiber pots, covered with soil and cultivated in a greenhouse under good growth conditions. 2 to 3 weeks after sowing, the test plants are treated at the one-leaf stage. The compounds of the invention, formulated in the form of wettable powders (WP) or as emulsion concentrates (EC), are then sprayed onto the green parts of the plants in the form of an aqueous suspension or emulsion at a water application rate equating to 600 to 800 l/ha, with addition of 0.2% wetting agent. After the test plants have been left to stand in the greenhouse under optimal growth conditions for about 3 weeks, the action of the preparations is assessed visually in comparison to untreated controls (herbicidal action in percent (%): 100% activity=the plants have died, 0% activity=like control plants). […] The tables below illustrate, in an exemplary manner, the post-emergence herbicidal action of the compounds according to the invention, the herbicidal activity being stated in percent. In the experiments that follow, herbicidal action of numerous inventive compounds and the known compounds that are structurally closest from D1 (WO 2012/028579 A1) and D2 (WO 2018/202535 A1) were compared under the above-specified conditions by the pre-emergence and post-emergence method. The example numbers given in the tables relate to the compounds disclosed in the respective documents. In addition to the compounds disclosed in D1 and D2, the following compounds V-1 to V-14 that are encompassed by D1 or D2 but are not compounds specified therein were used in the comparative experiments: • V-1: 2-(methylsulfanyl)-3-(methylsulfinyl)-N-(1-methyl-1H-tetrazol-5-yl)-4-(trifluoromethyl)benzamide • V-2: 2-(methylsulfanyl)-3-(methylsulfonyl)-N-(1-methyl-1H-tetrazol-5-yl)-4-(trifluoromethyl)benzamide • V-3: 2,3-bis(ethylsulfanyl)-N-(1-methyl-1H-tetrazol-5-yl)-4-(trifluoromethyl)benzamide • V-4: 2-chloro-3-(ethylsulfanyl)-N-(1-methyl-1H-tetrazol-5-yl)-4-(trifluoromethyl)benzamide • V-5: 2-chloro-4-iodo-3-(methylsulfanyl)-N-(1-methyl-1H-tetrazol-5-yl)benzamide • V-6: 2-chloro-4-iodo-3-(methylsulfinyl)-N-(1-methyl-1H-tetrazol-5-yl)benzamide • V-7: 2-chloro-4-iodo-3-(methylsulfonyl)-N-(1-methyl-1H-tetrazol-5-yl)benzamide • V-8: 2-bromo-3-(methylsulfanyl)-N-(1-methyl-1H-tetrazol-5-yl)-4-(trifluoromethyl)benzamide • V-9: 2-bromo-3-(methylsulfinyl)-N-(1-methyl-1H-tetrazol-5-yl)-4-(trifluoromethyl)benzamide • V-10: 2-bromo-3-(methylsulfonyl)-N-(1-methyl-1H-tetrazol-5-yl)-4-(trifluoromethyl)benzamide • V-11: 2-bromo-3-(ethylsulfanyl)-N-(1-methyl-1H-tetrazol-5-yl)-4-(trifluoromethyl)benzamide • V-12: 2-bromo-3-(ethylsulfinyl)-N-(1-methyl-1H-tetrazol-5-yl)-4-(trifluoromethyl)benzamide • V-13: 2-bromo-3-(ethylsulfonyl)-N-(1-methyl-1-1H-tetrazol-5-yl)-4-(trifluoromethyl)benzamide • V-14: 2-cyclopropyl-3-(ethylsulfanyl)-N-(1-methyl-1H-tetrazol-5-yl)-4-(trifluoromethyl)benzamide Herbicidal Pre-Emergence Action: […]

Hordeum murinum [2] = test: Pre-emergence herbicidal action, HORMU; settings: dosage 320 g/ha, scored visually after 3 weeks vs untreated controls (100% = plants have died)
In short: as §1

Compound: Cn1nnnc1NC(=O)c1ccc(C(F)(F)F)c(C[S+](C)[O-])c1Cl (racemic) [Example 1-297]
- Herbicidal action against CYPES (Cyperus esculentus): 100

Compound: COc1c(C(=O)Nc2nnnn2C)ccc(C(F)(F)F)c1CSC [Example 1-134]
- Herbicidal action against CYPES (Cyperus esculentus): 50

Compound: Cn1nnnc1NC(=O)c1ccc(C(F)(F)F)c(CS(C)(=O)=O)c1Cl [Example 1-298]
- Herbicidal action against CYPES (Cyperus esculentus): 100

Compound: C=CCSCc1c(C(F)(F)F)ccc(C(=O)Nc2nnnn2C)c1Cl [Example 1-308]
- herbicidal activity LOLRI (Lolium rigidum): 90%

Compound: CSCc1c(C(F)(F)F)ccc(C(=O)Nc2nnnn2C)c1Br [Example 1-380]
- Herbicidal action against CYPES (Cyperus esculentus): 60

Compound: Cn1nnnc1NC(=O)c1ccc(C(F)(F)F)c(C[S+](C)[O-])c1Br (centres unmarked) [Example 1-381]
- Herbicidal action against ALOMY (Alopecurus myosuroides): 50

Compound: Cn1nnnc1NC(=O)c1ccc(C(F)(F)F)c(CS(C)(=O)=O)c1Br [Example 1-382, 2-bromo-3-[(methylsulfonyl)methyl]-N-(1-methyl-1H-tetrazol-5-yl)-4-(trifluoromethyl)benzamide]
- Herbicidal action against ALOMY (Alopecurus myosuroides): 30

Compound: CCn1nnnc1NC(=O)c1ccc(C(F)(F)F)c(CS(C)(=O)=O)c1SC [Example 2-163]
- herbicidal action HORMU (Hordeum murinum [1]): 80

Compound: CCCn1nnnc1NC(=O)c1ccc(C(F)F)c(C[S+]([O-])CC)c1Cl (centres unmarked) [Example 3-324]
- herbicidal activity HORMU (Hordeum murinum [2]): 100%
- herbicidal activity LOLRI (Lolium rigidum): 100%
- herbicidal action HORMU (Hordeum murinum [1]): 80
